Laboratory results as given in US20080146511A1, “SELECTION METHOD OF PEPTIDES, PEPTIDES, METHOD AND KIT OF INFECTION IDENTIFICATION BY MYCOBACTERIUM LEPRAE, PHARMACEUTICAL OR IMMUNOLOGICAL COMPOSITIONS CONTAINING PEPTIDES OF MYCOBACTERIUM LEPRAE OR SEQUENCES FUNCTIONALLY EQUIVALENT” (Fundacao Oswaldo Cruz - FIOCRUZ, priority 2006, published 2008).
“Also recorded” adds a separate entry of the source.

What follows are sequences tested on PBMC (peripheral blood mononuclear cells). Details: not given.
Assay type: cell-based, human
Parameters: key to IFN-γ response specificity mark (asterisk): *: Peptides that induced response in leprosy patients only, or contact groups (but not in TB or EC groups) appear with an asterisk
With “LATVQYDDRRRFTKE [p91, M. leprae ML2347 aa 301-315]” the “capacity to discriminate PB patients from exposed healthy individuals (HC)” value (shortened to “capacity to discriminate PB patients”) was “discriminate individuals with known infection by Mycobacterium leprae (patients PB) from those individuals exposed to said microorganism, but healthy”. For “LLEEGVIVL [p68, M. leprae ML1419c aa 267-275]”, the “capacity to discriminate PB patients” value was “discriminate individuals with known infection by Mycobacterium leprae (patients PB) from those individuals exposed to said microorganism, but healthy”. For “LQAYSNLFGRTSAMQ [p92, M. leprae ML2452c aa 28-42]”, the “capacity to discriminate PB patients” value was “discriminate individuals with known infection by Mycobacterium leprae (patients PB) from those individuals exposed to said microorganism, but healthy”. In the case of “LQPYRLLRGGDSEYW [p75, M. leprae ML2177c aa 169-183]”, the “capacity to discriminate PB patients” value is reported as “discriminate individuals with known infection by Mycobacterium leprae (patients PB) from those individuals exposed to said microorganism, but healthy”. In the case of “SGRVTYLNPVGVKWM [p67, M. leprae ML1419c aa 51-65]”, the “capacity to discriminate PB patients” value is reported as “discriminate individuals with known infection by Mycobacterium leprae (patients PB) from those individuals exposed to said microorganism, but healthy”.

Same assay, conditions: PB, MB, HC, TB, EC
“LATVQYDDRRRFTKE [p91, M. leprae ML2347 aa 301-315]” was tested, and the “comparison of IFN-γ levels between groups (ANOVA, Tukey post hoc)” value (“comparison” below) was “induced the same kind of response”. For “LLEEGVIVL [p68, M. leprae ML1419c aa 267-275]”, the “comparison” value was “induced the same kind of response”. “LQAYSNLFGRTSAMQ [p92, M. leprae ML2452c aa 28-42]” was tested, and the “comparison” value was “induced the same kind of response”. For “LQPYRLLRGGDSEYW [p75, M. leprae ML2177c aa 169-183]”, the “comparison” value was “significantly higher in HC”. “RLDGTTLEV [p69, M. leprae ML1419c aa 113-121]” was tested, and the “comparison” value was “significantly higher in HC (p=0.02) and in PB (p=0.01)”. With “SGRVTYLNPVGVKWM [p67, M. leprae ML1419c aa 51-65]” the “comparison” value was “higher in PB”.

Same assay, conditions: PBMC of TB patients and endemic controls, 10 μg/ml, day 5, cutoff 125 pg/ml
In the case of “AILYRKIHGQDPAER [p60, M. leprae ML0398c aa 288-302]”, the “IFN-γ responses in groups TB and EC” value is reported as “induced responses in individuals in groups TB and EC”. With “GMDVGKVEALKIDGD [p93, M. leprae ML2591 mce1C aa 62-76]” the “IFN-γ responses in groups TB and EC” value was “most frequent responses in groups EC or TB”. In the case of “GNAMTTLGGRGISVV [p79, M. leprae ML0098 fbpC aa 84-98]”, the “IFN-γ responses in groups TB and EC” value is reported as “induced responses in individuals in groups TB and EC; also recorded: most frequent responses in groups EC or TB”. With “MATIRTVRNLKLCNP [p37, M. leprae ML0008c aa 1-15]” the “IFN-γ responses in groups TB and EC” value was “induced unexpected responses in groups EC or TB”. For “THAFDLVLSSHLLFT [p57, M. leprae ML0308 aa 139-153]”, the “IFN-γ responses in groups TB and EC” value was “induced responses in individuals in groups TB and EC”. For “TIEFLWQEGHSAHIE [p72, M. leprae ML1553 proS aa 154-168]”, the “IFN-γ responses in groups TB and EC” value was “induced responses in individuals in groups TB and EC; also recorded: most frequent responses in groups EC or TB”.

Same assay, conditions: PBMC, 10 μg/ml, day 5
In the case of “AAALEQLLGQTADVA [p51, M. leprae ML1057 aa 54-68]”, the “specificity of IFN-γ response (PB and HC versus TB, EC, NEC)” value is reported as “specific, inducing good responses in groups PB and HC, and no response in groups TB, EC or NEC”. “EAVLLRLDGTTLEVE [p65, M. leprae ML1419c aa 108-122]” was tested, and the “specificity of IFN-γ response (PB and HC versus TB, EC, NEC)” value was “specific, inducing good responses in groups PB and HC, and no response in groups TB, EC or NEC”. In the case of “LILGLLPAI [p61, M. leprae ML0398c aa 16-24]”, the “specificity of IFN-γ response (PB and HC versus TB, EC, NEC)” value is reported as “more specific than longer 15-mer peptide”. In the case of “QLLGQTADV [p52, M. leprae ML1057 aa 59-67]”, the “specificity of IFN-γ response (PB and HC versus TB, EC, NEC)” value is reported as “specific, inducing good responses in groups PB and HC, and no response in groups TB, EC or NEC”. “RLDGTTLEV [p69, M. leprae ML1419c aa 113-121]” was tested, and the “specificity of IFN-γ response (PB and HC versus TB, EC, NEC)” value was “specific, inducing good responses in groups PB and HC, and no response in groups TB, EC or NEC”.

Same assay, conditions: PBMC, peptide 10 μg/ml, day 5; leprosy patients/contacts vs TB and EC groups
With “AAALEQLLGQTADVA [p51, M. leprae ML1057 aa 54-68]” the “IFN-γ response specificity mark (asterisk)” value was “p51*”. For “DAEWLKLTSLGLRPR [p73, M. leprae ML1829 aa 108-122]”, the “IFN-γ response specificity mark (asterisk)” value was “p73*”. With “DATFQVIFSQHVHLS [p83, M. leprae ML0394c aa 97-111]” the “IFN-γ response specificity mark (asterisk)” value was “p83*”. In the case of “DDFLSLQRSISPNSY [p44, M. leprae ML0126 aa 251-265]”, the “IFN-γ response specificity mark (asterisk)” value is reported as “p44*”. “DDIWRTLASAVITGN [p88, M. leprae ML1189c aa 55-69]” was tested, and the “IFN-γ response specificity mark (asterisk)” value was “p88*”. With “DSTDTTDWSTAMTDA [p77, M. leprae ML2703 trxB aa 331-335]” the “IFN-γ response specificity mark (asterisk)” value was “p77*”. In the case of “EAVLLRLDGTTLEVE [p65, M. leprae ML1419c aa 108-122]”, the “IFN-γ response specificity mark (asterisk)” value is reported as “p65*”. With “FDEYRAMFALSAMDL [p56, M. leprae ML0308 aa 17-31]” the “IFN-γ response specificity mark (asterisk)” value was “p56*”. “GDVWKSIVHLRSTRH [p81, M. leprae ML0126 aa 180-194]” was tested, and the “IFN-γ response specificity mark (asterisk)” value was “p81*”. In the case of “GINLPKDELTAFGRK [p63, M. leprae ML0757c aa 6-20]”, the “IFN-γ response specificity mark (asterisk)” value is reported as “p63*”. “GRYYAEINSAKMYFG [p49, M. leprae ML1057 aa 10-24]” was tested, and the “IFN-γ response specificity mark (asterisk)” value was “p49*”. In the case of “KKRLTLLSGAMARRA [p82, M. leprae ML0394c aa 141-155]”, the “IFN-γ response specificity mark (asterisk)” value is reported as “p82*”. For “LATVQYDDRRRFTKE [p91, M. leprae ML2347 aa 301-315]”, the “IFN-γ response specificity mark (asterisk)” value was “p91*”. “LDDFLSLQRSISPNS [p42, M. leprae ML0126 aa 250-264]” was tested, and the “IFN-γ response specificity mark (asterisk)” value was “p42*”. For “LDIYTTLARDMAAIP [p71, M. leprae ML1553 proS aa 180-194]”, the “IFN-γ response specificity mark (asterisk)” value was “p71*”. With “LILGLLPAI [p61, M. leprae ML0398c aa 16-24]” the “IFN-γ response specificity mark (asterisk)” value was “p61*”. “LLEEGVIVL [p68, M. leprae ML1419c aa 267-275]” was tested, and the “IFN-γ response specificity mark (asterisk)” value was “p68*”. With “LNQLVSLVKQIFVQQ [p47, M. leprae ML0394c aa 73-87]” the “IFN-γ response specificity mark (asterisk)” value was “p47*”. In the case of “LQAYSNLFGRTSAMQ [p92, M. leprae ML2452c aa 28-42]”, the “IFN-γ response specificity mark (asterisk)” value is reported as “p92*”. In the case of “LQPYRLLRGGDSEYW [p75, M. leprae ML2177c aa 169-183]”, the “IFN-γ response specificity mark (asterisk)” value is reported as “p75*”. For “LTVVVKQRSKAFRPS [p39, M. leprae ML0008c aa 24-38]”, the “IFN-γ response specificity mark (asterisk)” value was “p39*”. For “MQEYRGLTSHTPCCR [p70, M. leprae ML1420 aa 93-107]”, the “IFN-γ response specificity mark (asterisk)” value was “p70*”. With “NHAVSSDFKTRSTNT [p54, M. leprae ML2567 aa 72-86]” the “IFN-γ response specificity mark (asterisk)” value was “p54*”. With “QLLGQTADV [p52, M. leprae ML1057 aa 59-67]” the “IFN-γ response specificity mark (asterisk)” value was “p52*”. For “QLMYLIEITSETKAL [p48, M. leprae ML0394c aa 22-36]”, the “IFN-γ response specificity mark (asterisk)” value was “p48*”. For “QVIFRDLTTQKAAEE [p66, M. leprae ML1419c aa 137-151]”, the “IFN-γ response specificity mark (asterisk)” value was “p66*”. With “RLDGTTLEV [p69, M. leprae ML1419c aa 113-121]” the “IFN-γ response specificity mark (asterisk)” value was “p69*”. In the case of “RRTVKILRPLPSNIT [p53, M. leprae ML2567 aa 95-109]”, the “IFN-γ response specificity mark (asterisk)” value is reported as “p53*”. For “RVSYGSECRSGNCLR [p40, M. leprae ML0008c aa 107-121]”, the “IFN-γ response specificity mark (asterisk)” value was “p40*”. “SGRVTYLNPVGVKWM [p67, M. leprae ML1419c aa 51-65]” was tested, and the “IFN-γ response specificity mark (asterisk)” value was “p67*”. “TRLLTVVVKQRSKAF [p38, M. leprae ML0008c aa 21-35]” was tested, and the “IFN-γ response specificity mark (asterisk)” value was “p38*”. “VGKVQGLLARLLTLP [p76, M. leprae ML2498 aa 75-89]” was tested, and the “IFN-γ response specificity mark (asterisk)” value was “p76*”. For “VKAVVDDVNAILLTGR [p74, M. leprae ML1915 aa 89-104]”, the “IFN-γ response specificity mark (asterisk)” value was “p74*”. With “VYLYNYLLAETSHVL [p86, M. leprae ML0840c aa 287-301]” the “IFN-γ response specificity mark (asterisk)” value was “p86*”. With “YGQVVRDVENTLRYL [p80, M. leprae ML0126 aa 125-139]” the “IFN-γ response specificity mark (asterisk)” value was “p80*”.
